The source of these data is US5428168A, “Lactol PAF antagonists” (British Biotech Pharmaceuticals Limited, priority 1990, dated 1995).

As a reminder, the IC50 is the point on the concentration scale where inhibition reaches its midpoint. A high value points to weaker potency in that assay.

This assay deals with T1, PAF receptor (Homo sapiens, UniProt P25105).
T1 construct: Platelet concentrates were obtained from a hospital blood bank; from tissue; host or cells: human platelets (plasma membrane fraction of lysed platelets from hospital blood bank concentrates)
T1 sequence (P25105 whole entry): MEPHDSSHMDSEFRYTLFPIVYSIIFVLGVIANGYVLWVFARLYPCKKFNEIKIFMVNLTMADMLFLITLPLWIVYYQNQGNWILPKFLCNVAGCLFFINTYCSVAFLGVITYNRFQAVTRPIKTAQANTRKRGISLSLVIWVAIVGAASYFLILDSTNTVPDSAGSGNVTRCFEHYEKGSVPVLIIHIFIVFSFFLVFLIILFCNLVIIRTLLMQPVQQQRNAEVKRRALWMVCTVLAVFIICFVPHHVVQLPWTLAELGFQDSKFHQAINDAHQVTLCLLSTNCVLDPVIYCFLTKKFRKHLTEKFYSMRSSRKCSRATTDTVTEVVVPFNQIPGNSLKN
In words: Inhibition of [3H]-PAF receptor binding to human platelet plasma membrane (isotopic labelling and filtration). The following applies: human platelet membranes, 0.5 nM [3H]-PAF, 0° C., 1 hour. Here is the method:
Compounds of general formula I inhibit PAF-induced functions in both the cellular and tissue levels by changing the PAF binding to its specific receptor site. The ability of compounds of general formula I to inhibit the binding of PAF to its specific receptor binding site on human platelet plasma membranes was measured according to the pharmacological example. […] Platelet concentrates were obtained from a hospital blood bank. These platelet concentrates (500-2500 ml.) were centrifuged at 800 rpm for 10 minutes in a SORVALL RC3B centrifuge to remove the red blood cells present. (The word SORVALL is a trade mark.) The supernatant was subsequently centrifuged at 3,000 rpm in a SORVALL RC3B centrifuge to pellet the platelets present. The platelet rich pellets were resuspended in a minimum volume of buffer (150 mM NaCl, 10 mM Tris, 2 mM EDTA, pH 7.5) and layered onto Ficoll-Paque gradients, 9 ml platelet concentrate to 2 ml Ficoll, and centrifuged at 1,900 rpm for 15 minutes in a SORVALL RT6000 centrifuge. This step removes the residual red blood cells and other nonspecific material such as lymphocytes from the preparation. The platelets which form a band between the plasma and the Ficoll were removed, resuspended in the above buffer and centrifuged at 3,000 rpm for 10 minutes in a SORVALL RT6000 centrifuge. The pelleted platelets were resuspended in buffer (10 mM Tris, 5mM MgCl2, 2 mM EDTA, pH 7.0), snap freezed in liquid N2 and allowed to thaw slowly at room temperature in order to lyse the platelets. The latter step was repeated at least 3 times to ensure proper lysis. The lysed platelets were centrifuged at 3,000 rpm for 10 minutes in a SORVALL RT6000 centrifuge and resuspended in buffer. The latter step was repeated twice in order to remove any cytoplasmic proteins which may hydrolyse the […]. The prepared platelet membranes may be stored at -70° C. After thawing the prepared membranes were centrifuged in a SORVALL RT6000 at 3,000 rpm for 10 minutes and resuspended in assay buffer. The assay was conducted by preparing a series of Tris-buffered solutions of the selected antagonist of predetermined concentrations. […] Incubation was initiated by the addition of 100 μg of the isolated membrane fraction to each of the above solutions at 0° C. […] (The word WHATMAN is a trade mark.) The residue in each case was rapidly washed 4 times with 5 ml cold (4° C.) Tris-buffer solution. […] % Inhibition=[(TB-TBA)/SB]x100 where the specific binding SB=TB-NSB […]
`COc1ccc([C@H]2CC[C@H](OCCCCCc3cccnc3)O2)cc1OC` (relative stereo) [Example 5A, O-(5-(3-Pyridyl)pentyl)-5-(3,4-dimethoxyphenyl)-gamma-butyrolactol ether] yielded an IC50 of 12000 nM. With `COc1ccc([C@H]2CC[C@@H](OCCCCCc3cccnc3)O2)cc1OC` (relative stereo) [Example 5B, O-(5-(3-Pyridyl)pentyl)-5-(3,4-dimethoxyphenyl)-gamma-butyrolactol ether] the figure was 1500 nM; with `COc1ccc([C@H]2CC[C@H](OCCCCC#Cc3cccnc3)O2)cc1OC` (relative stereo) [Example 6A, O-(6-(3-Pyridyl)hex-5-ynyl)-5-(3,4-dimethoxyphenyl)-gamma-butyrolactol ether], 3000 nM; with `COc1ccc([C@H]2CC[C@H](OCCCC/C=C\c3cccnc3)O2)cc1OC` (relative stereo) [Example 7A, Z-O-(6-(3-Pyridyl)hex-5-enyl)-5-(3,4-dimethoxyphenyl)-gamma-butyrolactol ether], 12000 nM. The value for `COc1ccc([C@H]2CC[C@H](OC/C=C/c3cccnc3)O2)cc1OC` (relative stereo) [Example 10A, E-O-(3-(3-Pyridyl)prop-2-enyl)-5-(3,4-dimethoxyphenyl)-gamma-butyrolactol ether] was 1000 nM; that for `COc1ccc([C@H]2CC[C@@H](OC/C=C/c3cccnc3)O2)cc1OC` (relative stereo) [Example 10B, E-O-(3-(3-Pyridyl)prop-2-enyl)-5-(3,4-dimethoxyphenyl)-gamma-butyrolactol ether] was 150 nM. As for `COc1ccc([C@H]2CC[C@@H](OCCCn3c(C)nc4cnccc43)O2)cc1OC` (relative stereo) [Example 30A, O-(3-(1H-2-Methylimidazo[4,5-c]pyridyl)propyl)-5-(3,4-dimethoxyphenyl)-gamma-butyrolactol ether], the IC50 was determined as 25 nM. As to `COc1ccc(C2CCC(OCCC#Cc3cccnc3)O2)cc1OC` (stereo not drawn) [Example 2, O-(4-(3-Pyridyl)but-3-ynyl)-5-(3,4-dimethoxyphenyl)-gamma-butyrolactol ether], the IC50 was 4000 nM. Take `COc1ccc(C2CCC(OCCCCc3cccnc3)O2)cc1OC` (stereo not drawn) [Example 3, O-(4-(3-Pyridyl)butyl)-5-(3,4-dimethoxyphenyl)-gamma-butyrolactol ether]: the half-maximal inhibitory concentration (IC50) turned out to be 6000 nM. Compound `COc1ccc(C2CCC(OCCCC#Cc3cccnc3)O2)cc1OC` (stereo not drawn) [Example 4, O-(5-(3-Pyridyl)pent-4-ynyl)-5-(3,4-dimethoxyphenyl)-gamma-butyrolactol ether] yielded an IC50 of 5000 nM. On to `COc1ccc(C2CCC(OCCCC/C=C\c3cccnc3)O2)cc1OC` (stereo not drawn) [Example 7B, Z-O-(6-(3-Pyridyl)hex-5-enyl)-5-(3,4-dimethoxyphenyl)-gamma-butyrolactol ether], for which the 50% inhibitory concentration (IC50) worked out at 2000 nM. As for `COc1ccc(C2CCC(OC(C)CCc3cccnc3)O2)cc1OC` (stereo not drawn) [Example 12, O-(1-Methyl-3-(3-pyridyl)propyl)-5-(3,4-dimethoxyphenyl)-gamma-butyrolactolether], the 50% inhibitory concentration (IC50) was determined as 3000 nM. As to `COc1ccc(C2CCC(OCc3ccc(-n4c(C)nc5ccccc54)cc3)O2)cc1OC` (stereo not drawn) [Example 23, O-((4-(1H-2-Methylbenzimidazyl)phenyl)methyl)-5-(3,4-dimethoxyphenyl)-gamma-butyrolactol ether], the 50% inhibitory concentration (IC50) amounted to 900 nM. The value for `COc1ccc(C2CCC(OCc3ccc(Cn4c(C)nc5ccccc54)cc3)O2)cc1OC` (stereo not drawn) [Example 24, O-((4-(1H-2-Methylbenzimidazylmethyl)phenyl)methyl)-5-(3,4-dimethoxyphenyl)-gamma-butyrolactol ether] was 2000 nM; that for `COc1ccc(C2CCC(OCCCn3c(C)nnc3C)O2)cc1OC` (stereo not drawn) [Example 29, O-(3-(3,5-Dimethyl-1,2,4-triazol-4-yl)propyl)-5-(3,4-dimethoxyphenyl)-gamma-butyrolactol ether] was 250 nM.
